Measured values: patent publication US20090105278A1, “Selective inhibitors of human corticosteroid syntheses” (Universitat Des Saarlandes, priority 2004, published 2009)
Structures can show the parent of a compound that is named as a salt.

Biological target: T1, bovine adrenal CYP11B (Bos taurus, UniProt P15150)
T1 sequence (P15150 25-503): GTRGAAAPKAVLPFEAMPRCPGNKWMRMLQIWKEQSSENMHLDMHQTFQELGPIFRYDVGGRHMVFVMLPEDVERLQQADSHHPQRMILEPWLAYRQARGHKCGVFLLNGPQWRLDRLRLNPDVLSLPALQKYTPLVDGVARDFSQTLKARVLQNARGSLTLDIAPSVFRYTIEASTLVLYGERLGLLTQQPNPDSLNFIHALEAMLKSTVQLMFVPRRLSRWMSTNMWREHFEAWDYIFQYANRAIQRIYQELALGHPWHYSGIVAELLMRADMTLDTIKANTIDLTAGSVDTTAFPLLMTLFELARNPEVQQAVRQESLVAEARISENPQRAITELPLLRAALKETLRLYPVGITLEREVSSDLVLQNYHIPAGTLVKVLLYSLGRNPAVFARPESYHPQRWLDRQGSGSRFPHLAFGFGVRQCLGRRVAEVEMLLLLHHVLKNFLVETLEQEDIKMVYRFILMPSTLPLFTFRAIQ
Assay: Percent inhibition of bovine CYP11B (adrenal mitochondria)
Conditions: bovine adrenal mitochondria, 1 mg/ml protein; corticosterone substrate 200 μM; inhibitor 1 μM
Procedure: Bovine adrenal glands obtained freshly after slaughtering were stored in ice cold Tris-sucrose buffer (0.25 M sucrose, 0.05 M Tris; pH 7.4) until processed. After removing the appending adipose tissue, the adrenal medulla was carefully separated from the adrenal cortex using scissors. The pieces of adrenal cortex were coarsely comminuted with scissors, washed with Tris-sucrose buffer, weighed and finely comminuted in the above buffer (2 ml per g of tissue) with a hand mixer. Thereafter, the tissue was homogenized with an Ultra-Turrax mixer. For separating coarse cell debris and the nuclei, the homogenizate was centrifuged twice for 15 min at 900 g and 4° C. The supernatant was subsequently centrifuged for 35 min at 11,000 g for recovering the mitochondrial fraction. For purifying the mitochondrial fraction, the precipitate was resuspended in Tri-sucrose buffer and again centrifuged at 11,000 g for 35 min. This washing step was performed two times in total. After the last centrifugation, the pellet was resuspended in Tris-sucrose buffer containing 0.001 M EDTA and frozen at −70° C.
The substrate corticosterone was dissolved in methanol and diluted with Tris buffer to a final concentration of 200 μM. The inhibitors were also dissolved in methanol and diluted with buffer to a final concentration of 1 μM. […] Corticosterone (200 μM) was incubated with inhibitor (1 μM) and mitochondrial enzyme (0.5 mg/0.5 ml) with the addition of a regenerating system consisting of NADP^+ (1 mM), glucose-6-phosphate (7 mM) and glucose-6-Phosphate dehydrogenase (1 IU/0.5 ml). Up to 5 inhibitors per test could be incubated in duplicate. […] After preincubation for 5 minutes (30° C.; water bath), the reaction was started by adding mitochondrial suspension. […] The blind values were admixed with 250 μl of HCl before the enzyme was pipetted in. The steroids were separated off by shaking with 1 ml of ethyl acetate (10 min). After centrifugation (15,000 g, 10 min), 900 μl of the organic phase was shaken with 250 μl 1 N NaOH (10 min), and 800 μl of supernatant was again washed with 250 μl of buffer. […] 18-OH-corticosterone (retention time: 10 min) and corticosterone (retention time: 21 min) were separated. The height of the 18-OH-corticosterone peak was used for evaluation. The percent inhibition of the 18-hydroxylation of corticosterone by the inhibitors was based on the mediums of the control incubation, taking the blind values into account.

Row | Compound | % Inhibition bovine bCYP11B [%]
1 | 5-[(E)-(6-Chloro-3,4-dihydronaphth-1(2H)-ylidene)methyl]-1H-imidazolium chloride [Compound 46a] | 66
2 | 5-[(Z)-3,4-Dihydronaphth-1(2H)-ylidenemethyl]-1H-imidazolium oxalate [Compound 41b] | 95
3 | 5-[(Z)-(5-Bromo-2,3-dihydro-1H-indene-1-ylidene)methyl]-1H-imidazolium oxalate [Compound 49b] | 88
4 | 5-[(Z)-(5-Chloro-2,3-dihydro-1H-indene-1-ylidene)methyl]-1H-imidazolium oxalate [Compound 48b] | 87

Same assay, conditions: read-out: % Inhibition bovine bCYP11B, bovine adrenal mitochondria, 1 mg/ml protein; corticosterone substrate 200 μM; inhibitor 1 μM

Row | Compound | inhibition at 1 µM [%]
5 | C(=C1/CCc2ccccc21)/c1cnc[nH]1 [Compound 42a, 5-[(E)-2,3-Dihydro-1H-indane-1-ylidenemethyl]-1H-imidazole] | 62

Biological target: T2, human CYP11B1 (Homo sapiens, UniProt P15538)
T2 construct: expressed in transfected cells; host or cells: V79 MZh11B1 (Chinese hamster lung fibroblasts)
T2 sequence (P15538 25-503): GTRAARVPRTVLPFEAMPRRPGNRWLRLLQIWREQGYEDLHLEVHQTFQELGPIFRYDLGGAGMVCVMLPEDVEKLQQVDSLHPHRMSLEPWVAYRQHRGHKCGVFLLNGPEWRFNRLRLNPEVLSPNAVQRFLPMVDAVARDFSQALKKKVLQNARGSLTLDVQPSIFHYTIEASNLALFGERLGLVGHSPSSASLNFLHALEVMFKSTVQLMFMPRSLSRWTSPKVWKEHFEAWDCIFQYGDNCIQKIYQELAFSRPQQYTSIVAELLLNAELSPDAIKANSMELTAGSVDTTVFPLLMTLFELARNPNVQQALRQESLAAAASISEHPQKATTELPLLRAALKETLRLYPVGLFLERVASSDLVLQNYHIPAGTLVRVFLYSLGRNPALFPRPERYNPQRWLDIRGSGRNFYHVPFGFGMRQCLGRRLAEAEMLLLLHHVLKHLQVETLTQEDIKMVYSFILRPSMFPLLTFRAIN
Assay: V79 MZh 11B1 cells inhibition test
Assay type: cell-based
Conditions: Table 7: preincubation 1 h; DOC 100 nM; incubation 140 min; read-out: V79MZh11B1 CYP11B1 DOC [IC50]
Procedure: Both cell lines were cultured in DMEM^+ containing […] and the antibiotics penicillin and streptomycin (10%) for protection from bacterial contamination. The cells were passaged every 2-3 days after treatment with trypsin/EDTA because the doubling rate was 1-2 days depending on the number of cells. […] When there was further need, freshly thawed cells were employed.
Thereafter, the plate was stored at 37° C. and […] in a CO2 incubator. […] Controls without inhibitor were treated in the same way. The enzyme reactions were quenched by extracting the supernatant with 500 μl of EtOAc. The samples were centrifuged (10,000 g, 2 min), the solvent was removed and evaporated.
It was calculated by determining the percent inhibition for at least 3 different inhibitor concentrations, which must all be in the linear range of the sigmoidal IC50 curve (log C/% inhibition).
The calculation was effected by linear regression. The values determined were used only if they formed a straight line with a reliability of […].
The plate was developed twice with the mobile solvent chloroform:methanol:water (300:20:1). Unlabeled 11-deoxycorticosterone and corticosterone were applied as a reference for the CYP11B1 reaction. For the CYP11B2 reaction, 11-deoxycorticosterone, corticosterone, 18-hydroxycorticosterone and aldosterone were used as references. The detection of the unlabeled references was effected at 260 nm. Subsequently, imaging plates (BAS MS2340, for ^14C samples, Raytest, Straubenhardt, Germany) were exposed to the HPTLC plates for 48 h. The imaging plates were scanned with the phosphoimager system Fuji FLA 3000 (Raytest, Straubenhardt, Germany), and the steroids were quantified.

Row | Compound | IC50 [nM]
6 | Fc1ccc2c(c1)CC/C2=C/c1cccnc1 [Compound 5b, 3-[(Z)-(5-Fluoro-2,3-dihydro-1H-indane-1-ylidene)methyl]pyridine Hydrochloride] | 125

Same assay, conditions: hamster fibroblasts which express human CYP11B1; deoxycorticosterone substrate 100 nM; read-out: IC50 V79 11B1 hCYP11B1

Row | Compound | IC50 [nM]
7 | 5-[(Z)-(5-Bromo-2,3-dihydro-1H-indene-1-ylidene)methyl]-1H-imidazolium oxalate [Compound 49b] | 23.5
8 | C(=C1/CCc2ccccc21)/c1cccnc1 [Compound 1a, 3-[(E)-2,3-Dihydro-1H-indane-1-ylidenemethyl]pyridine Hydrochloride] | 888
9 | C(=C1\CCc2ccccc21)/c1cccnc1.Cl [Compound 1b, 3-[(Z)-2,3-Dihydro-1H-indane-1-ylidenemethyl]pyridine Hydrochloride] | 86.6
10 | C(=C1\CCc2ccccc21)/c1ccncc1 [Compound 2b, 4-[(Z)-2,3-Dihydro-1H-indane-1-ylidenemethyl]pyridine oxalate] | 1320
11 | C(=C1/CCCc2ccccc21)/c1cccnc1.Cl [Compound 3a, 3-[(E)-3,4-Dihydronaphthalene-1(2H)-ylidenemethyl]pyridine Hydrochloride] | 715
12 | C(=C1\CCCc2ccccc21)/c1cccnc1.Cl [Compound 3b, 3-[(Z)-3,4-Dihydronaphthalene-1(2H)-ylidenemethyl]pyridine Hydrochloride] | 1420
13 | Fc1ccc2c(c1)CC/C2=C\c1cccnc1 [Compound 5a, 3-[(E)-(5-Fluoro-2,3-dihydro-1H-indane-1-ylidene)methyl]pyridine Hydrochloride] | 311
14 | Fc1ccc2c(c1)CC/C2=C/c1cccnc1 [Compound 5b, 3-[(Z)-(5-Fluoro-2,3-dihydro-1H-indane-1-ylidene)methyl]pyridine Hydrochloride] | 125
15 | Fc1ccc2c(c1)CC/C2=C\c1ccncc1 [Compound 6a, 4-[(E)-(5-Fluoro-2,3-dihydro-1H-indane-1-ylidene)methyl]pyridine Hydrochloride] | 380
16 | Fc1ccc2c(c1)CC/C2=C/c1ccncc1 [Compound 6b, 4-[(Z)-(5-Fluoro-2,3-dihydro-1H-indane-1-ylidene)methyl]pyridine Hydrochloride] | 257
17 | Clc1ccc2c(c1)CC/C2=C\c1cccnc1 [Compound 7a, 3-[(E)-(5-Chloro-2.3-dihydro-1H-indane-1-ylidene)methyl]pyridine Hydrochloride] | 1470
18 | Clc1ccc2c(c1)CC/C2=C/c1cccnc1 [Compound 7b, 3-[(Z)-(5-Chloro-2,3-dihydro-1H-indane-1-ylidene)methyl]pyridine Hydrochloride] | 270
19 | Clc1ccc2c(c1)CC/C2=C\c1ccncc1 [Compound 8a, 4-[(E)-(5-Chloro-2,3-dihydro-1H-indane-1-ylidene)methyl]pyridine Hydrochloride] | 243
20 | Brc1ccc2c(c1)CC/C2=C\c1cccnc1 [Compound 9a, 3-[(E)-(5-Bromo-2,3-dihydro-1H-indane-1-ylidene)methyl]pyridine Hydrochloride] | 1940
21 | Brc1ccc2c(c1)CC/C2=C/c1cccnc1 [Compound 9b, 3-[(Z)-(5-Bromo-2,3-dihydro-1H-indane-1-ylidene)methyl]pyridine Hydrochloride] | 320
22 | Brc1ccc2c(c1)CC/C2=C\c1ccncc1 [Compound 10a, 4-[(E)-(5-Bromo-2,3-dihydro-1H-indane-1-ylidene)methyl]pyridine Hydrochloride] | 948

Row | Compound | IC50 [nM]
23 | COc1ccc2c(c1)CC/C2=C\c1cccnc1 [Compound 11a, 3-[(E)-(5-Methoxy-2,3-dihydro-1H-indane-1-ylidene)methyl]pyridine Hydrochloride] | 1450
24 | COc1ccc2c(c1)CC/C2=C/c1cccnc1 [Compound 11b, 3-[(Z)-(5-Methoxy-2,3-dihydro-1H-indane-1-ylidene)methyl]pyridine Hydrochloride] | 790
25 | COc1ccc2c(c1)CCC/C2=C\c1cccnc1 [Compound 13a, 3-[(E)-(6-Methoxy-3,4-dihydronaphthalene-1(2H)-ylidene)methyl]pyridine Hydrochloride] | 903
26 | COc1ccc2c(c1)CCC/C2=C/c1cccnc1.Cl [Compound 13b, 3-[(Z)-(6-Methoxy-3,4-dihydronaphthalene-1(2H)-ylidene)methyl]pyridine Hydrochloride] | 206
27 | CCOc1ccc2c(c1)CC/C2=C\c1cccnc1 [Compound 19a, 3-[(E)-(5-Ethoxy-2,3-dihydro-1H-indane-1-ylidene)methyl]pyridine Hydrochloride] | 2370
28 | CCOc1ccc2c(c1)CC/C2=C/c1cccnc1 [Compound 19b, 3-[(Z)-(5-Ethoxy-2,3-dihydro-1H-indane-1-ylidene)methyl]pyridine Hydrochloride] | 2700
29 | Cc1cccc2c1CC/C2=C\c1cccnc1 [Compound 23a, 3-[(E)-(4-Methyl-2,3-dihydro-1H-indane-1-ylidene)methyl]pyridine Hydrochloride] | 763
30 | Fc1cccc2c1CC/C2=C\c1cccnc1 [Compound 24a, 3-[(E)-(4-Fluoro-2,3-dihydro-1H-indane-1-ylidene)methyl]pyridine Hydrochloride] | 774
31 | Clc1cccc2c1CC/C2=C\c1cccnc1 [Compound 25a, 3-[(E)-(4-Chloro-2,3-dihydro-1H-indane-1-ylidene)methyl]pyridine Hydrochloride] | 304
32 | Clc1cccc2c1CC/C2=C/c1cccnc1 [Compound 25b, 3-[(Z)-(4-Chloro-2,3-dihydro-1H-indane-1-ylidene)methyl]pyridine Hydrochloride] | 657
33 | COc1cccc2c1/C(=C/c1cccnc1)CC2 [Compound 26a, 3-[(E)-(7-Methoxy-2,3-dihydro-1H-indane-1-ylidene)methyl]pyridine Hydrochloride] | 955
34 | Fc1ccc2c(c1)CC/C2=C\c1cncnc1 [Compound 28a, 5-[(E)-(5-Fluoro-2,3-dihydro-1H-indane-1-ylidene)methyl]pyrimidine Hydrochloride] | 3180
35 | Fc1ccc2c(c1)CC/C2=C\c1cccc2cnccc12 [Compound 30a, 5-[(E)-(5-Fluoro-2,3-dihydro-1H-indane-1-ylidene)methyl]isoquinoline Hydrochloride] | 1130
36 | Fc1ccc2c(c1)CC/C2=C/c1cccc2cnccc12 [Compound 30b, 5-[(Z)-(5-Fluoro-2,3-dihydro-1H-indane-1-ylidene)methyl]isoquinoline Hydrochloride] | 374
37 | C(=C1/CCc2ccccc21)/c1cnc[nH]1 [Compound 42a, 5-[(E)-2,3-Dihydro-1H-indane-1-ylidenemethyl]-1H-imidazole] | 25.9

Test system: not given
Assay: not given
Conditions: not given

Row | Compound | melting point [°C]
38 | C(=C1/CCCc2ccccc21)/c1cccnc1.Cl [Compound 3a, 3-[(E)-3,4-Dihydronaphthalene-1(2H)-ylidenemethyl]pyridine Hydrochloride] | 209
39 | C(=C1\CCCc2ccccc21)/c1cccnc1.Cl [Compound 3b, 3-[(Z)-3,4-Dihydronaphthalene-1(2H)-ylidenemethyl]pyridine Hydrochloride] | 206
40 | COc1ccc2c(c1)CCC/C2=C/c1cccnc1.Cl [Compound 13b, 3-[(Z)-(6-Methoxy-3,4-dihydronaphthalene-1(2H)-ylidene)methyl]pyridine Hydrochloride] | 151
